Key:
[1] = test system: male Carworth Farms #1 mice; assay: Maximal electroshock seizure test (MES); type: in vivo; conditions: Mus musculus, maximal electroshock seizures
Excerpt: (§1) Pharmacology. The following compounds were'tested for anticonvulsant activity using male Carworth Farms #1 mice: • N-Acetyl-D,L-alanine-N'-benzylamide • N-Acetyl-D-alanine-N'-benzylamide • N-Acetyl-L-alanine-N'-benzylamide • N-Acetyl-D,L-phenylglycine-N'-methylamide • N-Acetylglycine-N-benzylamide • N-Acetyl-D,L-valine-N-benzylamide • N-Acetyl-D,L-phenylglycine-N-benzylamide • N-Acetyl-D-phenylglycine-N-benzylamide • N-Acetyl-L-phenylglycine-N-benzylamide • N-Acetyl-D,L-alanine-N-(3-methoxy)benzylamide • N-Trimethylacetyl-D,L-alanine-N-benzylamide • N-Acetyl-D,L-methionine-N-benzylamide • N-Acetyl-D,L-alanine-N'-(3-fluoro)benzylamide • D,L-α-Acetamido-N-benzyl-3-thiopheneacetamide • D,L-α-Acetamido-N-benzyl-2-thiopheneacetamide • D,L-α-Acetamido-N-benzyl-2-furanacetamide • D,L-α-Acetamido-N-benzyl-2-pyrroleacetamide • D,L-2-Acetamido-N-benzyl-2-ethoxyacetamide • D,L-α-Acetamido-N-benzyl-2-(5-methylfuran)acetamide • D,L-α-Acetamido-N-benzyl-2-benzofuranacetamide • D,L-α-Acetamido-N-benzyl-2-benzo[b]thiopheneacetamide • D,L-α-Acetamido-N-benzyl-2-(5-methylpyrrole)acetamide • D,L-α-Acetamido-N-(2-fluorobenzyl)-2-furanacetamide • D,L-α-Acetamido-N-(3-fluorobenzyl)-2-furanacetamide • D,L-α-Acetamido-N-(4-fluorobenzyl)-2-furanacetamide • D,L-α-Acetamido-N-(2,5-difluorobenzyl)-2-furanacetamide • D,L-α-Acetamido-N-(2,6-difluorobenzyl)-2-furanacetamide • D-(-)-α-Acetamido-N-benzyl-2-furanacetamide • L-(+)-α-Acetamido-N-benzyl-2-furanacetamide • D,L-2-Acetamido-4-pentenoic acid-N-benzylamide • D,L-2-Acetamido-N-benzyl-2-(1-morpholine)acetamide (reference compound) • D,L-2-Acetamido-N-benzyl-2-(N-anilino)acetamide • D,L-2-Acetamido-N-benzyl-2-(methylamino)acetamide • D,L-2-Acetamido-N-benzyl-2-(ethylamino)acetamide • D,L-2-Acetamido-N-benzyl-3-indoleacetamide (reference compound)
(§2) N-Acetyl-D,L-alanine-N'-benzylamide was tested at […] as well. […] Maximal electroshock seizures (MES) were elicited with a 60 cycle alternating current of 50 mA intensity (5-7 times that necessary to elicit minimal electroshock seizures) delivered for 0.2 sec via corneal electrodes. A drop of 0.9% saline was instilled in the eye prior to application of the electrodes so as to prevent the death of the animal. Protection in this test was defined as as the abolition of the hind limb tonic extension component of the seizure. The Subcutaneous Pentylenetetrazole (Metrazol^R) Seizure Threshold Test (sc Met) entailed the administration of 85 mg/kg of pentylenetetrazole as a 0.5% solution subcutaneously in the posterior midline. […] Protection was defined as a failure to observe even a threshold seizure (a single episode of clonic spasms of at least 5 sec duration). The effects of the compounds on forced and spontaneous motor activity were evaluated in mice using the Rotorod Test (Tox) or, in some cases, as indicated herein, a horizontal screen assay (HS). The procedure for the rotorod test is described in J. Am. Pharm. Assoc., 46, 208-209 (1957). In the rotorod test, the animal was placed on a one-inch diameter knurled plastic rod rotating at 6 rpm after the administration of the drug. Normal mice can remain on a rod rotating at this speed indefinitely. Neurologic toxicity was defined as the failure of the animal to remain on the rod for one minute. In the horizontal screen test, previously trained mice were dosed with the compound and placed individually on top of a square (13 cm X 13 cm) wire screen (no. 4 mesh) which was mounted on a metal rod. The rod was rotated 180°, and the number of mice that returned to the top of the screen was determined. Inability to climb to the top within one minute was defined as "neurological impairment". This procedure is described in Pharmacol. Biochem. Behav. 6, 351-353 (1977).
(§3) The dose effect behavior of the compounds was evaluated using the above-described procedures by the administration of varying dose levels, treating normally eight mice at each dose. […]

[2] = Horizontal screen test (HS), neurological impairment; type: in vivo; conditions: mouse, in vivo; mice; determined using the horizontal screen test (footnote xx); 95% confidence intervals in brackets; read-out: Tox TD50
Excerpt: as §1, §2, §3

[3] = Rotorod Test (Tox), neurologic toxicity; conditions: mouse, in vivo, mice, median toxic dose, 95% confidence intervals in brackets
Experimental: The effects of the compounds on forced and spontaneous motor activity were evaluated in mice using the Rotorod Test (Tox) or, in some cases, as indicated herein, a horizontal screen assay (HS). […] In the rotorod test, the animal was placed on a one-inch diameter knurled plastic rod rotating at 6 rpm after the administration of the drug. Normal mice can remain on a rod rotating at this speed indefinitely. Neurologic toxicity was defined as the failure of the animal to remain on the rod for one minute. In the horizontal screen test, previously trained mice were dosed with the compound and placed individually on top of a square (13 cm X 13 cm) wire screen (no. 4 mesh) which was mounted on a metal rod. The rod was rotated 180°, and the number of mice that returned to the top of the screen was determined. Inability to climb to the top within one minute was defined as "neurological impairment".

[4] = test system: male Carworth Farms #1 mice; assay: Horizontal screen test (HS), neurological impairment; type: in vivo; conditions: determined using the horizontal screen test (footnote xx), 95% confidence intervals in brackets
Excerpt: as §1, §2, §3

[5] = test system: male Carworth Farms #1 mice; assay: Subcutaneous Pentylenetetrazole (Metrazol) Seizure Threshold Test (sc Met); type: in vivo; conditions: 85 mg/kg pentylenetetrazole subcutaneously, 95% confidence intervals in brackets
Experimental: Pharmacology. […]
N-Acetyl-D,L-alanine-N'-benzylamide was tested at 600 mg/mL as well. […] The effects of the compounds on forced and spontaneous motor activity were evaluated in mice using the Rotorod Test (Tox) or, in some cases, as indicated herein, a horizontal screen assay (HS). […] The rod was rotated 180°, and the number of mice that returned to the top of the screen was determined. […]
as §3

[6] = 50 mA, 0.2 sec, corneal electrodes, 95% confidence intervals in brackets

SMILES | ED50 [1, 6] | TD50 [2] | also measured
CC(=O)NC(C(=O)NCc1ccccc1)c1cc2ccccc2o1 (racemic) [(D,L)-α-Acetamido-N-benzyl-2-benzofuranacetamide] | 100 to 300 mg/kg | 100 to 300 mg/kg | –
CC(=O)NC(C(=O)NCc1ccc(F)cc1)c1ccco1 (racemic) [(D,L)-α-Acetamido-N-(4-fluorobenzyl)-2-furanacetamide] | 12.7 mg/kg | 144 mg/kg | –
CC(=O)NC(C(=O)NCc1ccccc1)c1ccco1 (racemic) [D,L-α-Acetamido-N-benzyl-2-furanacetamide] | – | 23.8 mg/kg | TD50 [3]: > 300 mg/kg
CC(=O)NC(C(=O)NCc1ccccc1)c1cc2ccccc2s1 (racemic) [(D,L)-α-Acetamido-N-benzyl-2-benzo[b]thiopheneacetamide] | 100 to 300 mg/kg | 100 to 300 mg/kg | –
CCNC(NC(C)=O)C(=O)NCc1ccccc1 (racemic) [(D,L)-2-Acetamido-N-benzyl-2-(ethylamino)acetamide] | 42.4 mg/kg | – | –
CC(=O)NC(C(=O)NCc1ccccc1)c1ccc(C)o1 (racemic) [(D,L)-α-Acetamido-N-benzyl-2-(5-methylfuran)acetamide] | 19.2 mg/kg | – | Tox TD50 [4]: 75.4^xx mg/kg
CC(=O)NC(C(=O)NCc1ccccc1F)c1ccco1 (racemic) [(D,L)-α-Acetamido-N-(2-fluorobenzyl)-2-furanacetamide] | 40 mg/kg | – | –
CC(=O)NC(C(=O)NCc1ccccc1)N1CCOCC1 (racemic) [(D,L)-2-Acetamido-N-benzyl-2-(1-morpholine)acetamide, reference compound] | 30 to 100 mg/kg | – | –
CNC(NC(C)=O)C(=O)NCc1ccccc1 (racemic) [(D,L)-2-Acetamido-N-benzyl-2-(methylamino)acetamide] | 44.5 mg/kg | – | TD50 [3]: 95 mg/kg
CC(=O)NC(C(=O)NCc1c(F)cccc1F)c1ccco1 (racemic) [(D,L)-α-Acetamido-N-(2,6-difluorobenzyl)-2-furanacetamide] | 25 to 100 mg/kg | – | –
CC(=O)NC(Nc1ccccc1)C(=O)NCc1ccccc1 (racemic) [(D,L)-2-Acetamido-N-benzyl-2-(N-anilino)acetamide] | – | – | ED50 ([1]; result given as footnote symbol): ≥ 300 mg/kg
O=C1NC(=O)C(c2ccccc2)(c2ccccc2)N1 [phenytoin] | – | – | sc Met ED50 [5]: not effective
CC(=O)NC(C(=O)NCc1cccc(F)c1)c1ccco1 (racemic) [(D,L)-α-Acetamido-N-(3-fluorobenzyl)-2-furanacetamide] | 13.3 mg/kg | 136 mg/kg | –
C=CCC(NC(C)=O)C(=O)NCc1ccccc1 (racemic) [(D,L)-2-Acetamido-4-pentenoic Acid-N-benzylamide] | 33.6 mg/kg | – | –
CC(=O)NC(C(=O)NCc1cc(F)ccc1F)c1ccco1 (racemic) [(D,L)-α-Acetamido-N-(2,5-fluorobenzyl)-2-furanacetamide] | 23.8 mg/kg | – | –
CC(=O)NC(C(=O)NCc1ccccc1)c1ccc(C)[nH]1 (racemic) [(D,L)-α-Acetamido-N-benzyl-2-(5-methylpyrrole)acetamide] | 36.5 mg/kg | – | –
